Results reported in ChEMBL document CHEMBL6078640, “Trivalent oleanolic acid-glucose conjugates: Synthesis and efficacy against Influenza A virus” (Eur J Med Chem, 2024).

What was measured:
Influenza A virus [1] = test: Antiviral activity against Influenza A virus H1N1 infected in MDCK cells assessed as inhibition of viral growth at 100 uM relative to control; format: functional
[2] = Selectivity index, ratio of CC50 for dog MDCK cells to IC50 for influenza A virus A/WSN/33(H1N1) infected in MDCK cells; format: toxicity, cell-based; details: read-out: Selectivity Index
MDCK = test: Cytotoxicity against dog MDCK cells assessed as reduction in cell viability at 100 uM incubated for 40 hrs by celltiter-glo assay; format: toxicity, cell-based, Canis lupus familiaris
Influenza A virus [3] = test: Antiviral activity against influenza A virus A/WSN/33(H1N1) infected in MDCK cells assessed as inhibition of viral-induced cytopathic effect pretreated with cells followed by viral infection and measured after 40 hrs by fluorescence based microplate reader analysis; format: functional, organism-based
[4] = Cytotoxicity against dog MDCK cells assessed as reduction in cell viability incubated for 40 hrs by celltiter-glo assay; format: toxicity, cell-based, Canis lupus familiaris

| Structure (SMILES) | inhibition at 100 µM (Influenza A virus [1]) [%] | selectivity ratio [2] | Activity (MDCK) | IC50 (Influenza A virus [3]) [µM] | CC50 at 40 h [4] [µM] |
| --- | --- | --- | --- | --- | --- |
| CC(=O)OC[C@H]1O[C@@H](n2cc(CNC(=O)[C@]34CCC(C)(C)C[C@H]3C3=CC[C@@H]5[C@@]6(C)CC[C@H](OC(=O)NCCCCCc7cn(CC(CO)(Cn8cc(CCCCCNC(=O)O[C@H]9CC[C@]%10(C)[C@H]%11CC=C%12[C@@H]%13CC(C)(C)CC[C@]%13(C(=O)NCc%13cn([C@@H]%14O[C@H](COC(C)=O)[C@@H](OC(C)=O)[C@H](OC(C)=O)[C@H]%14OC(C)=O)nn%13)CC[C@@]%12(C)[C@]%11(C)CC[C@H]%10C9(C)C)nn8)Cn8cc(CCCCCNC(=O)O[C@H]9CC[C@]%10(C)[C@H]%11CC=C%12[C@@H]%13CC(C)(C)CC[C@]%13(C(=O)NCc%13cn([C@@H]%14O[C@H](COC(C)=O)[C@@H](OC(C)=O)[C@H](OC(C)=O)[C@H]%14OC(C)=O)nn%13)CC[C@@]%12(C)[C@]%11(C)CC[C@H]%10C9(C)C)nn8)nn7)C(C)(C)[C@@H]6CC[C@@]5(C)[C@]3(C)CC4)nn2)[C@H](OC(C)=O)[C@@H](OC(C)=O)[C@@H]1OC(C)=O | > 75 | > 4.02 | Non-toxic | 24.9 | > 100 |
| CC1(C)CC[C@]2(C(=O)NCc3cn([C@@H]4O[C@H](CO)[C@@H](O)[C@H](O)[C@H]4O)nn3)CC[C@]3(C)C(=CC[C@@H]4[C@@]5(C)CC[C@H](OC(=O)NCCCCCc6cn(CC(CO)(Cn7cc(CCCCCNC(=O)O[C@H]8CC[C@]9(C)[C@H]%10CC=C%11[C@@H]%12CC(C)(C)CC[C@]%12(C(=O)NCc%12cn([C@@H]%13O[C@H](CO)[C@@H](O)[C@H](O)[C@H]%13O)nn%12)CC[C@@]%11(C)[C@]%10(C)CC[C@H]9C8(C)C)nn7)Cn7cc(CCCCCNC(=O)O[C@H]8CC[C@]9(C)[C@H]%10CC=C%11[C@@H]%12CC(C)(C)CC[C@]%12(C(=O)NCc%12cn([C@@H]%13O[C@H](CO)[C@@H](O)[C@H](O)[C@H]%13O)nn%12)CC[C@@]%11(C)[C@]%10(C)CC[C@H]9C8(C)C)nn7)nn6)C(C)(C)[C@@H]5CC[C@]43C)[C@@H]2C1 | > 75 | > 16.7 | Non-toxic | 5.99 | > 100 |
| CC(=O)OC[C@H]1O[C@@H](n2cc(CNC(=O)[C@]34CCC(C)(C)C[C@H]3C3=CC[C@@H]5[C@@]6(C)CC[C@H](OC(=O)NCCc7cn(CC(CO)(Cn8cc(CCNC(=O)O[C@H]9CC[C@]%10(C)[C@H]%11CC=C%12[C@@H]%13CC(C)(C)CC[C@]%13(C(=O)NCc%13cn([C@@H]%14O[C@H](COC(C)=O)[C@@H](OC(C)=O)[C@H](OC(C)=O)[C@H]%14OC(C)=O)nn%13)CC[C@@]%12(C)[C@]%11(C)CC[C@H]%10C9(C)C)nn8)Cn8cc(CCNC(=O)O[C@H]9CC[C@]%10(C)[C@H]%11CC=C%12[C@@H]%13CC(C)(C)CC[C@]%13(C(=O)NCc%13cn([C@@H]%14O[C@H](COC(C)=O)[C@@H](OC(C)=O)[C@H](OC(C)=O)[C@H]%14OC(C)=O)nn%13)CC[C@@]%12(C)[C@]%11(C)CC[C@H]%10C9(C)C)nn8)nn7)C(C)(C)[C@@H]6CC[C@@]5(C)[C@]3(C)CC4)nn2)[C@H](OC(C)=O)[C@@H](OC(C)=O)[C@@H]1OC(C)=O | > 75 | > 9.69 | Non-toxic | 10.3 | > 100 |
| CC(=O)OC[C@H]1O[C@@H](n2cc(CNC(=O)[C@]34CCC(C)(C)C[C@H]3C3=CC[C@@H]5[C@@]6(C)CC[C@H](OC(=O)NCc7cn(Cc8cc(Cn9cc(CNC(=O)O[C@H]%10CC[C@]%11(C)[C@H]%12CC=C%13[C@@H]%14CC(C)(C)CC[C@]%14(C(=O)NCc%14cn([C@@H]%15O[C@H](COC(C)=O)[C@@H](OC(C)=O)[C@H](OC(C)=O)[C@H]%15OC(C)=O)nn%14)CC[C@@]%13(C)[C@]%12(C)CC[C@H]%11C%10(C)C)nn9)cc(Cn9cc(CNC(=O)O[C@H]%10CC[C@]%11(C)[C@H]%12CC=C%13[C@@H]%14CC(C)(C)CC[C@]%14(C(=O)NCc%14cn([C@@H]%15O[C@H](COC(C)=O)[C@@H](OC(C)=O)[C@H](OC(C)=O)[C@H]%15OC(C)=O)nn%14)CC[C@@]%13(C)[C@]%12(C)CC[C@H]%11C%10(C)C)nn9)c8)nn7)C(C)(C)[C@@H]6CC[C@@]5(C)[C@]3(C)CC4)nn2)[C@H](OC(C)=O)[C@@H](OC(C)=O)[C@@H]1OC(C)=O | > 75 | > 147 | Non-toxic | 0.68 | > 100 |
| CC(=O)OC[C@H]1O[C@@H](n2cc(CNC(=O)[C@]34CCC(C)(C)C[C@H]3C3=CC[C@@H]5[C@@]6(C)CC[C@H](OC(=O)NCCc7cn(Cc8cc(Cn9cc(CCNC(=O)O[C@H]%10CC[C@]%11(C)[C@H]%12CC=C%13[C@@H]%14CC(C)(C)CC[C@]%14(C(=O)NCc%14cn([C@@H]%15O[C@H](COC(C)=O)[C@@H](OC(C)=O)[C@H](OC(C)=O)[C@H]%15OC(C)=O)nn%14)CC[C@@]%13(C)[C@]%12(C)CC[C@H]%11C%10(C)C)nn9)cc(Cn9cc(CCNC(=O)O[C@H]%10CC[C@]%11(C)[C@H]%12CC=C%13[C@@H]%14CC(C)(C)CC[C@]%14(C(=O)NCc%14cn([C@@H]%15O[C@H](COC(C)=O)[C@@H](OC(C)=O)[C@H](OC(C)=O)[C@H]%15OC(C)=O)nn%14)CC[C@@]%13(C)[C@]%12(C)CC[C@H]%11C%10(C)C)nn9)c8)nn7)C(C)(C)[C@@H]6CC[C@@]5(C)[C@]3(C)CC4)nn2)[C@H](OC(C)=O)[C@@H](OC(C)=O)[C@@H]1OC(C)=O | > 75 | > 8.55 | Non-toxic | 46.8 | > 100 |
| CC1(C)CC[C@]2(C(=O)NCc3cn([C@@H]4O[C@H](CO)[C@@H](O)[C@H](O)[C@H]4O)nn3)CC[C@]3(C)C(=CC[C@@H]4[C@@]5(C)CC[C@H](OC(=O)NCc6cn(CC(CO)(Cn7cc(CNC(=O)O[C@H]8CC[C@]9(C)[C@H]%10CC=C%11[C@@H]%12CC(C)(C)CC[C@]%12(C(=O)NCc%12cn([C@@H]%13O[C@H](CO)[C@@H](O)[C@H](O)[C@H]%13O)nn%12)CC[C@@]%11(C)[C@]%10(C)CC[C@H]9C8(C)C)nn7)Cn7cc(CNC(=O)O[C@H]8CC[C@]9(C)[C@H]%10CC=C%11[C@@H]%12CC(C)(C)CC[C@]%12(C(=O)NCc%12cn([C@@H]%13O[C@H](CO)[C@@H](O)[C@H](O)[C@H]%13O)nn%12)CC[C@@]%11(C)[C@]%10(C)CC[C@H]9C8(C)C)nn7)nn6)C(C)(C)[C@@H]5CC[C@]43C)[C@@H]2C1 | > 75 | > 14.5 | Non-toxic | 6.91 | > 100 |
| CC1(C)CC[C@]2(C(=O)NCc3cn([C@@H]4O[C@H](CO)[C@@H](O)[C@H](O)[C@H]4O)nn3)CC[C@]3(C)C(=CC[C@@H]4[C@@]5(C)CC[C@H](OC(=O)NCCCCCc6cn(Cc7cc(Cn8cc(CCCCCNC(=O)O[C@H]9CC[C@]%10(C)[C@H]%11CC=C%12[C@@H]%13CC(C)(C)CC[C@]%13(C(=O)NCc%13cn([C@@H]%14O[C@H](CO)[C@@H](O)[C@H](O)[C@H]%14O)nn%13)CC[C@@]%12(C)[C@]%11(C)CC[C@H]%10C9(C)C)nn8)cc(Cn8cc(CCCCCNC(=O)O[C@H]9CC[C@]%10(C)[C@H]%11CC=C%12[C@@H]%13CC(C)(C)CC[C@]%13(C(=O)NCc%13cn([C@@H]%14O[C@H](CO)[C@@H](O)[C@H](O)[C@H]%14O)nn%13)CC[C@@]%12(C)[C@]%11(C)CC[C@H]%10C9(C)C)nn8)c7)nn6)C(C)(C)[C@@H]5CC[C@]43C)[C@@H]2C1 | > 75 | > 1.37 | Non-toxic | 72.9 | > 100 |
